Results: publication PMC9653409, “Generative deep learning enables the discovery of a potent and selective RIPK1 inhibitor” (Nature Communications, 2022)
Several values for one entry are separate records, joined by “and”; a condition that tells them apart may be missing. Equal values may be shown once.

Key:
RIPK3 = RIPK3 (Homo sapiens, UniProt Q9Y572); assay: Kinase IC50 assay (Eurofins); type: biochemical
Procedure: (§1) In vitro kinase activity assays were conducted through the Kinase Profiling Services provided by Eurofins (Eurofins, France). The protocol for the RIPK1 assay is briefly described as follows (Protocols for other kinases are very similar and can be found in http://www.eurofins.com/pharmadiscovery). RIPK1 kinase was incubated with the test compound in assay buffer containing 8 mM MOPS (pH 7.0), 0.2 mM EDTA, 250 μM […], 10 mM magnesium acetate, and 10 μM [γ-33P]-ATP for 15 min at room temperature. The reaction was initiated by the addition of the Mg/ATP mixture. After incubation for 40 min at room temperature, and the reaction was stopped by the addition of 3% phosphoric acid. A 10 μL portion of the reaction mixture was then spotted onto a P30 filter mat and washed four times for 4 min in 0.425% phosphoric acid and once in methanol prior to drying and scintillation counting.

RIPK4 = RIPK4 (Homo sapiens, UniProt P57078); assay: Kinase IC50 assay (Eurofins); type: biochemical
Chain of RIPK4 (P57078 whole entry): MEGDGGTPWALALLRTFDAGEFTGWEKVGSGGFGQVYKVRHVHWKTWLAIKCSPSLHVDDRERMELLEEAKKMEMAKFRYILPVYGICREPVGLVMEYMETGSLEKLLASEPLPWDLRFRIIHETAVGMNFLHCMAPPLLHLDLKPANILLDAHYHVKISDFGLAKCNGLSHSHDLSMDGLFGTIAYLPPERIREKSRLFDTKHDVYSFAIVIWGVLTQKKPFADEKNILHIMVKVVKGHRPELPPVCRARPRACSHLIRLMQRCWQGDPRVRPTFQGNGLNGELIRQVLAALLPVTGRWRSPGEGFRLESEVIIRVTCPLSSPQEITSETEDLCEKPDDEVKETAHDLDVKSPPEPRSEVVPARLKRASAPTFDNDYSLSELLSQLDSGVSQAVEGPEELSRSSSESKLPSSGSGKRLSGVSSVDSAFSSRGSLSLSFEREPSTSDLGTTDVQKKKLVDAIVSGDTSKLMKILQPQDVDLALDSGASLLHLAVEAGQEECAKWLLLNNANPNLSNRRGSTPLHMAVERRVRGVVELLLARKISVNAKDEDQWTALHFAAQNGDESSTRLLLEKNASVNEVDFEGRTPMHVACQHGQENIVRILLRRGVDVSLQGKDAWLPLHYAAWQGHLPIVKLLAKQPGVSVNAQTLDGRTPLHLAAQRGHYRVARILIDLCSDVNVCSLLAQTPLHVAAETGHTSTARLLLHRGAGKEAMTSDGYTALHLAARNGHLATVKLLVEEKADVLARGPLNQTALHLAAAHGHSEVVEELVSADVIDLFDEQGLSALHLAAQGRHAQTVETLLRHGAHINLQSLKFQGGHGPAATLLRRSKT
Procedure: as §1

HT29 cells = assay: TSZ-induced HT29 cell necroptosis model (CCK8); type: cell-based; details: Homo sapiens, HT-29
Procedure: (§2) Cell necroptosis protection assays were performed in 96-well cell culture plates. Cells were plated in each well and cultured at 37 °C overnight. […] The cell survival rate was determined using a CCK8 cell viability assay kit and CLARIOstar (v5.61). […] All experiments were performed at least two times, and each EC50 value was expressed as mean ± standard deviation (SD).

IL-1β [1] = assay: TNFα-induced SIRS mouse model: serum IL-1β (ELISA); type: in vivo, C57BL/6 female mice; details: 40 mg/kg i.p.
Procedure: (§3) The body temperatures of the mice were continuously monitored until 6 h after TNFα administration. At 6 h after TNFα injection, four mice in each group were killed at random, and the serums, heart, liver, spleen, lung, and kidney tissues were collected for analysis.
(§4) In the TNFα-induced SIRS model, at 6 h after TNFα injection, four mice in each group were killed at random, and the serums were collected, the serum concentrations of IL-1β and IL-6 were measured using ELISA kits (Neobioscience Technology) according to manufacturer’s instructions. […] The supernatant was collected by sequential centrifugation at 500 × g for 10 min and 3000 × g for 10 min. The concentrations of cytokines TNFα, IL-6, and IL-1β were measured using ELISA kits (Neobioscience Technology).

IL-1β [2] = assay: DSS-induced IBD mouse model: IL-1β in cultured colon supernatant (ELISA); type: in vivo, C57BL/6 female mice
Procedure: (§5) DSS (3% w/v) was administered in drinking water ad libitum for 7 d (from day 0 to day 7). DSS solution was replaced three times on day 2, day 4, and day 6. […] Three mice in each group were killed at random on day 7, and distal colon tissues were collected for analysis. The mice weight and survival rate were recorded daily.
as §4

TNFα-induced SIRS [3] = assay: TNFα-induced SIRS mouse model: survival; type: in vivo, C57BL/6 female mice
[4] = tested on: kinases that have an inhibitory rate larger than 50%; assay: IC50 against kinases with inhibitory rate larger than 50%; type: biochemical, human; details: all except MLK3; read-out: IC50 against all other kinases followed up
Procedure: as §1

[5] = Maximum tolerated dose study in mice
TNFα-induced SIRS [6] = assay: TNFα-induced SIRS mouse model: body temperature loss; type: in vivo, C57BL/6 female mice; details: for ΔTemperature Average: group average
Procedure: as §3

J774A.1 cells = assay: TSZ-induced J774A.1 cell necroptosis model (CCK8); type: cell-based; details: Mus musculus, J774.A1
Procedure: as §2

DSS-induced IBD [7] = assay: DSS-induced IBD mouse model: body weight; type: in vivo, C57BL/6 female mice; details: for Body Weight (%): Figure 9a
Procedure: as §5

DSS-induced IBD [8] = assay: DSS-induced IBD mouse model: colon length; type: in vivo, C57BL/6 female mice
Procedure: as §5

[9] = 0 h after mTNFα, individual mice

Chain of RIPK3 (Q9Y572 whole entry): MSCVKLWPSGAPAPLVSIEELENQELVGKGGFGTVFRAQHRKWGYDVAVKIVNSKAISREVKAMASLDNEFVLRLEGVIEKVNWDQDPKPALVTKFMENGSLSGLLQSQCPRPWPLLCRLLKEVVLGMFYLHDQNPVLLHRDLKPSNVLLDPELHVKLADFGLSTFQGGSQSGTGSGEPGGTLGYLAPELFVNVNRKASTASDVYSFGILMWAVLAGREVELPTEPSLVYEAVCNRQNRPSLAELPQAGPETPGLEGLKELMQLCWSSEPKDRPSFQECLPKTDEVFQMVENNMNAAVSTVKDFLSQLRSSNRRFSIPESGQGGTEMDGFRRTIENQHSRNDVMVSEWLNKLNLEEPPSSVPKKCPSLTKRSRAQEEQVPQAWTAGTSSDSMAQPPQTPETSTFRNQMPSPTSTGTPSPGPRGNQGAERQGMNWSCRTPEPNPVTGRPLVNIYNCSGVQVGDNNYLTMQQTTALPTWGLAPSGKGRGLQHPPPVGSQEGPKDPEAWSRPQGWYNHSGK

CC(C)C(=O)Nc1nc2cc(-c3ccc4c(c3)c(C(=O)NC(C)c3ccccc3)cn4C)ccn2n1 (centres unmarked) [RI-962]
IC50 (RIPK3): > 10000 nM
IC50 (RIPK4): > 10000 nM
viability at 56 pM (HT29 cells; 0.000056 μM): 20.2%
viability at 0.000169 µM (HT29 cells; 0.000169 μM): 21.7%
viability at 0.000508 µM (HT29 cells; 0.000508 μM): 21.7%
viability at 0.001524 µM (HT29 cells; 0.001524 μM): 23.4%
viability at 0.004572 µM (HT29 cells; 0.004572 μM): 36.3%
viability at 0.013717 µM (HT29 cells; 0.013717 μM): 78.8%
viability at 0.041152 µM (HT29 cells; 0.041152 μM): 96.7%
viability at 0.123457 µM (HT29 cells; 0.123457 μM): 109%
viability at 0.37037 µM (HT29 cells; 0.370370 μM): 110%
viability at 1.11111 µM (HT29 cells; 1.111111 μM): 107%
viability at 3.33333 µM (HT29 cells; 3.333333 μM): 109%
viability at 10 µM (HT29 cells; 10.000000 μM): 109%
EC50 (HT29 cells; HT29 treated with TSZ, 24 h, read-out: EC50): 10 nM
concentration of IL-1β (IL-1β [1]; 6 h after TNFα): remarkably reduced
IL-1β (IL-1β [1]; serum 6 h after TNFα, animals 1-4): 95.48 pg/mL and 91.16 pg/mL and 77.29 pg/mL and 76.39 pg/mL
content of IL-1β in cultured colonic tissue supernatants (IL-1β [2]; 40 mg/kg i.p., day 7): substantially reduced
IL-1β (IL-1β [2]; Figure 9h, individual replicates 1-3): 46.88 pg/mL and 42.98 pg/mL and 47.29 pg/mL
survival rate (TNFα-induced SIRS [3]; 40 mg/kg i.p. 15 min before mTNFα 300 μg/kg i.v.): 90%
1 means death, 0 means survival (TNFα-induced SIRS [3]; 40 mg/kg i.p., per animal): 1 and 0
Time after mTNFα (TNFα-induced SIRS [3]; 40 mg/kg i.p., per animal, time of death or end of observation): 24 h and 72 h
IC50 [4]: > 10000 nM
impact on mouse organs (H&E staining) ([5]; 250mg/kg): no obvious impact on different mouse organs
tolerability observations ([5]; doses up to 250 mg/kg): no observed weight loss and no other side effects
ΔTemperature Average (TNFα-induced SIRS [6]; 0 h after mTNFα): 0 °C
Temperature (TNFα-induced SIRS [6]; [9]): 36.3 °C (4×) and 36.5 °C (3×) and 36.2 °C (5×) and 36.6 °C (2×)
ΔTemperature (TNFα-induced SIRS [6]; [9]): 0 °C
TNFα-induced temperature loss (TNFα-induced SIRS [6]; 40 mg/kg i.p.): remarkably reduced
ΔTemperature Average (TNFα-induced SIRS [6]; 1 h after mTNFα): -0.06429 °C
Temperature (TNFα-induced SIRS [6]; 1 h after mTNFα, individual mice): 36.3 °C (5×) and 36.2 °C (5×) and 36.1 °C and 36.5 °C (2×) and 36.4 °C
ΔTemperature Average (TNFα-induced SIRS [6]; 2 h after mTNFα): 0.05 °C
Temperature (TNFα-induced SIRS [6]; 2 h after mTNFα, individual mice): 36.3 °C (7×) and 36.4 °C and 36.5 °C (5×) and 36.6 °C
ΔTemperature Average (TNFα-induced SIRS [6]; 3 h after mTNFα): 0.01429 °C
Temperature (TNFα-induced SIRS [6]; 3 h after mTNFα, individual mice): 36.3 °C (6×) and 36.4 °C (4×) and 36.5 °C (3×) and 36.2 °C
ΔTemperature Average (TNFα-induced SIRS [6]; 4 h after mTNFα): 0.007143 °C
Temperature (TNFα-induced SIRS [6]; 4 h after mTNFα, individual mice): 36.2 °C (2×) and 36.5 °C (4×) and 36.4 °C (2×) and 36.3 °C (6×)
ΔTemperature Average (TNFα-induced SIRS [6]; 5 h after mTNFα): -0.02143 °C
Temperature (TNFα-induced SIRS [6]; 5 h after mTNFα, individual mice): 36.3 °C (7×) and 36.4 °C (3×) and 36.1 °C and 36.5 °C (2×) and 36.2 °C
ΔTemperature Average (TNFα-induced SIRS [6]; 6 h after mTNFα): -0.1571 °C
Temperature (TNFα-induced SIRS [6]; 6 h after mTNFα, individual mice): 36.3 °C (8×) and 36.4 °C and 35.9 °C (3×) and 36 °C and 36.2 °C
viability at 56 pM (J774A.1 cells; 0.000056 μM): 1.06%
viability at 0.000169 µM (J774A.1 cells; 0.000169 μM): 1.51%
viability at 0.000508 µM (J774A.1 cells; 0.000508 μM): 3.42%
viability at 0.001524 µM (J774A.1 cells; 0.001524 μM): 11.4%
viability at 0.004572 µM (J774A.1 cells; 0.004572 μM): 24.7%
viability at 0.013717 µM (J774A.1 cells; 0.013717 μM): 48.7%
viability at 0.041152 µM (J774A.1 cells; 0.041152 μM): 85.3%
viability at 0.123457 µM (J774A.1 cells; 0.123457 μM): 88.9%
viability at 0.37037 µM (J774A.1 cells; 0.370370 μM): 93%
viability at 1.11111 µM (J774A.1 cells; 1.111111 μM): 98.3%
viability at 3.33333 µM (J774A.1 cells; 3.333333 μM): 91.5%
EC50 (J774A.1 cells; J774A.1 treated with TSZ, 24 h): 11.4 nM
loss of body weight (DSS-induced IBD [7]; 40 mg/kg i.p. once a day): strongly ameliorated this loss of body weight
Body Weight (%) (DSS-induced IBD [7]; day 0): 100%
Body Weight (%) (DSS-induced IBD [7]; day 1): 97.11%
Body Weight (%) (DSS-induced IBD [7]; day 2): 98.41%
Body Weight (%) (DSS-induced IBD [7]; day 3): 102.3%
Body Weight (%) (DSS-induced IBD [7]; day 4): 103.1%
Body Weight (%) (DSS-induced IBD [7]; day 5): 104.6%
Body Weight (%) (DSS-induced IBD [7]; day 6): 103.5%
Body Weight (%) (DSS-induced IBD [7]; day 7): 103.5%
Body Weight (%) (DSS-induced IBD [7]; day 8): 99.79%
Body Weight (%) (DSS-induced IBD [7]; day 9): 98.12%
Body Weight (%) (DSS-induced IBD [7]; day 10): 98.15%
Body Weight (%) (DSS-induced IBD [7]; day 11): 100.8%
Body Weight (%) (DSS-induced IBD [7]; day 12): 100.7%
Body Weight (%) (DSS-induced IBD [7]; day 13): 102.5%
Body Weight (%) (DSS-induced IBD [7]; day 14): 104.7%
DSS-induced shortening of colon length (DSS-induced IBD [8]; 40 mg/kg i.p. once a day, day 7): markedly reduced
Colon Length (DSS-induced IBD [8]; Figure 9b, individual replicates 1-3): 52.0 mm and 54.0 mm (2×)
